Data: ChEMBL document CHEMBL1201862, “PubChem BioAssay data set” (2004)
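Briefly, cells in 96-well plates were exposed to five compound concentrations for 48 h, and endpoints were estimated by linear interpolation. GI50 = concentration required for 50% inhibition of growth.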 Activity calls are given as the source filed them. Cut-off read from the data, not from the text of the source: active = GI50 up to about 1.1 µM and inactive = higher.

How the values were obtained:
Experiment in all cases: NCI tumour cell line growth inhibition, 48 h
[1] = tested on: 786-0
[2] = tested on: CAKI-1
[3] = tested on: DU-145
[4] = tested on: HCC 2998
[5] = tested on: HL-60
[6] = tested on: HOP-62
[7] = tested on: IGROV-1
[8] = tested on: LOX IMVI
[9] = tested on: MDA-MB-435
[10] = tested on: MDA-N
[11] = tested on: NCI-H23
[12] = tested on: NCI-H522
[13] = tested on: PC-3
[14] = tested on: RPMI-8226
[15] = tested on: SK-OV-3
[16] = tested on: SW-620
[17] = tested on: T47D
[18] = tested on: TK-10
[19] = tested on: UACC-257
[20] = tested on: UACC-62

Measured: GI50

CCOC(=O)c1c(C)n(CCN2CCN(C)CC2)c2ccc(OC)cc12
inactive: [1] 38 µM | [2] 32.3 µM | [3] > 100 µM | [4] 16.6 µM | [5] 19.6 µM | [6] 32.3 µM | [7] 31.2 µM | [8] 16.6 µM | [9] 19.9 µM | [10] 19.6 µM | [11] > 100 µM | [12] 28.6 µM | [13] 34 µM | [14] 20.4 µM | [15] 72.6 µM | [16] 37.5 µM | [17] 34.4 µM | [18] 33.3 µM | [19] 16.9 µM | [20] 17 µM
